These results are taken from patent publication US9624214B2, “Amino-substituted imidazo[1,2-a]pyridinecarboxamides and their use” (BAYER PHARMA AKTIENGESELLSCHAFT, priority 2012, dated 2017).

The structures appear in SMILES notation. Where a name gives a salt, the structure may show the parent alone.

The target of the test is T1, recombinant guanylate cyclase reporter cell line (Rattus norvegicus, UniProt P19686+P20595).
T1 construct: expressed in transfected cells
T1 sequence (P20595 1-619): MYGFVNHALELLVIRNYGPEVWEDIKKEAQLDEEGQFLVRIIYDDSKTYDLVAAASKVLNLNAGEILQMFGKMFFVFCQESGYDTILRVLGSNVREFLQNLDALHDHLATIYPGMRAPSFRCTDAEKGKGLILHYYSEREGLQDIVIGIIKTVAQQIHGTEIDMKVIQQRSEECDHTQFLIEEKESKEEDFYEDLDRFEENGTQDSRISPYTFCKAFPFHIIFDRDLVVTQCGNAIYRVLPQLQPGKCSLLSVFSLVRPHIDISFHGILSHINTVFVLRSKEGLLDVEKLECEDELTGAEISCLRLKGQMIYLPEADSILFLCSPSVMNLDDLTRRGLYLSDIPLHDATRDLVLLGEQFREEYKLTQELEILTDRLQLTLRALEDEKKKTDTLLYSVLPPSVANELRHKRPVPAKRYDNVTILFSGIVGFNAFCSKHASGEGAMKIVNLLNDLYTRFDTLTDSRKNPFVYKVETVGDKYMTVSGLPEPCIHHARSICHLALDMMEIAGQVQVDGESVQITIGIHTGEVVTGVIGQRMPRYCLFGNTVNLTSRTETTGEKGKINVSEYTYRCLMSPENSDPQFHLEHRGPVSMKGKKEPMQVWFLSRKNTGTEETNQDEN
T1 sequence (P19686 1-690): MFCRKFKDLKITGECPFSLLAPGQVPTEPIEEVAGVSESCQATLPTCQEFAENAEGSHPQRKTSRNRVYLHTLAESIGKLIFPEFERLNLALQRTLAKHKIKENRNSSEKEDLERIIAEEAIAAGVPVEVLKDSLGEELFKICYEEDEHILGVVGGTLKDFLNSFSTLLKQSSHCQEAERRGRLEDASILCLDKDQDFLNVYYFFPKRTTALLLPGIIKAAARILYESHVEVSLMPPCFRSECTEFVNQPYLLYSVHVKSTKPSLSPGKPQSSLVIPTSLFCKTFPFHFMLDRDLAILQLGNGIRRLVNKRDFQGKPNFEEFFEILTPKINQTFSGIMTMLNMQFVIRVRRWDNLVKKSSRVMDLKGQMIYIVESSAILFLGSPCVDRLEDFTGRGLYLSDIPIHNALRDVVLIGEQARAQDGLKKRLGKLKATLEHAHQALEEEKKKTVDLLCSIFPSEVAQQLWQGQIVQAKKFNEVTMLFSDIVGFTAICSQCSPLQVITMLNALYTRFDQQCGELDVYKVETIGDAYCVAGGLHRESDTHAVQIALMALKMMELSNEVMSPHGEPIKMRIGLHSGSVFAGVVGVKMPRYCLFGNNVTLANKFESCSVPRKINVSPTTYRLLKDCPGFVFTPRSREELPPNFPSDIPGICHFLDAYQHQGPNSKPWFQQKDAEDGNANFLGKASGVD
In words: B-2. Action on recombinant guanylate cyclase reporter cell line. To be noted: MEC = minimal effective concentration; in some cases mean values from individual determinations. In kind it is cell-based. An outline of the steps: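 Compounds are tested on whole cells carrying a guanylate cyclase reporter construct. The lowest concentration giving an effect is recorded as the MEC.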

For the molecule `Cc1nc2c(OCc3c(F)cccc3F)cccn2c1C(=O)NC(C)[C@@H](C)N` (stereo partly drawn) [Example 121, N-[(3R)-3-Aminobutan-2-yl]-8-[(2,6-difluorobenzyl)oxy]-2-methylimidazo[1,2-a]pyridine-3-carboxamide], the MEC amounted to 0.30 µM.
With `Cc1nc2c(OCc3c(F)cccc3F)cccn2c1C(=O)NC(CN)COc1ccc(F)c(F)c1` (stereo not drawn) [Example 124, ent-N-[1-Amino-3-(3,4-difluorophenoxy)propan-2-yl]-8-[(2,6-difluorobenzyl)oxy]-2-methylimidazo[1,2-a]pyridine-3-carboxamide Ditrifluoroacetate], the MEC turned out to be 1.00 µM.
For `Cc1nc2c(OCc3c(F)cccc3F)cccn2c1C(=O)NCCNC(C)C` [Example 130, 8-[(2,6-difluorobenzyl)oxy]-N-[2-(isopropylamino)ethyl]-2-methylimidazo[1,2-a]-pyridine-3-carboxamide], the MEC was found to be 1.00 µM.
For the molecule `Cc1nc2c(OCc3c(F)cccc3F)cccn2c1C(=O)NCCN1CCS(=O)(=O)CC1` [Example 131, 8-[(2,6-difluorobenzyl)oxy]-N-[2-(1,1-dioxidothiomorpholin-4-yl)ethyl]-2-methylimidazo[1,2-a]pyridine-3-carboxamide], the MEC came to 3.00 µM.
Consider `Cc1nc2c(OCc3c(F)cccc3F)cccn2c1C(=O)NCCN1CCN(C)CC1` [Example 133, 8-[(2,6-difluorobenzyl)oxy]-2-methyl-N-[2-(4-methylpiperazin-1-yl)ethyl]imidazo[1,2-a]-pyridine-3-carboxamide], for which the MEC was 3.00 µM.
In the case of `Cc1cc(OCc2c(F)cccc2F)c2nc(C)c(C(=O)NCCN3CCOCC3)n2c1` [Example 136, 8-[(2,6-difluorobenzyl)oxy]-2,6-dimethyl-N-[2-(morpholin-4-yl)ethyl]imidazo[1,2-a]pyridine-3-carboxamide], the MEC amounted to 0.10 µM.
Turning to `Cc1cc(OCc2c(F)cccc2F)c2nc(C)c(C(=O)NCCN3CCN(C)CC3)n2c1` [Example 137, 8-[(2,6-difluorobenzyl)oxy]-2,6-dimethyl-N-[2-(4-methylpiperazin-1-yl)ethyl]imidazo[1,2-a]-pyridine-3-carboxamide], the MEC was determined as 1.00 µM.
As to `Cc1cc(OCc2c(F)cccc2F)c2nc(C)c(C(=O)NCCN3CCN(C(C)C)CC3)n2c1` [Example 139, 8-[(2,6-difIuorobenzyl)oxy]-N-[2-(4-isopropylpiperazin-1-yl)ethyl]-2,6-dimethylimidazo[1,2-a]pyridine-3-carboxamide], the MEC turned out to be 1.00 µM.
Turning to `Cc1nc2c(OCc3c(F)cccc3F)cc(F)cn2c1C(=O)NCC(C)(C)N` [Example 140, N-(2-Amino-2-methylpropyl)-8-[(2,6-difluorobenzyl)oxy]-6-fluoro-2-methylimidazo[1,2-a]-pyridine-3-carboxamide], the MEC amounted to 1.00 µM.
The result for `Cc1nc2c(OCc3c(F)cccc3F)cccn2c1C(=O)NC(C)(C)C(C)(C)N` [Example 141, N-(3-Amino-2,3-dimethylbutan-2-yl)-8-[(2,6-difluorobenzyl)oxy]-2-methylimidazo[1,2-a]pyridine-3-carboxamide] reads 3.00 µM; that for `Cc1nc2c(OCc3c(F)cccc3F)cccn2c1C(=O)NCCN1CCC(F)(F)C1` [Example 143, 8-[(2,6-difluorobenzyl)oxy]-N-[2-(3,3-difluoropyrrolidin-l-yl)ethyl]-2-methylimidazo[1,2-a]pyridine-3-carboxamide], 0.30 µM; that for `COCCNCCNC(=O)c1c(C)nc2c(OCc3c(F)cccc3F)cccn12` [Example 144, 8-[(2,6-difluorobenzyl)oxy]-N-{2-[(2-methoxyethyl)amino]ethyl}-2-methylimidazo[1,2-a]pyridine-3-carboxamide], 3.00 µM.
On to `Cc1nc2c(OCc3c(F)cccc3F)cccn2c1C(=O)NCC(C)(C)N(C)C` [Example 145, 8-[(2,6-difluorobenzyl)oxy]-N-[2-(dimethylamino)-2-methylpropyl]-2-methylimidazo[1,2-a]pyridine-3-carboxamide], for which the MEC is 3.00 µM.
The value for `Cc1nc2c(OCc3c(F)cccc3F)cccn2c1C(=O)NCCN(CC(F)F)C1CC1` [Example 146, N-{2-[cyclopropyl(2,2-difluoroethyl)amino]ethyl}-8-[(2,6-difluorobenzyl)oxy]-2-methylimidazo[1,2-a]-pyridine-3-carboxamide] was 1.00 µM; that for `Cc1nc2c(OCc3c(F)cccc3F)cc(Cl)cn2c1C(=O)NCC(C)(C)N1CCCC1` [Example 148, 6-chloro-8-[(2,6-difluorobenzyl)oxy]-2-methyl-N-[2-methyl-2-(pyrrolidin-1-yl)-propyl]imidazo[1,2-a)pyridine-3-carboxamide] was 1.00 µM; that for `Cc1nc2c(OCc3c(F)cccc3F)cc(Cl)cn2c1C(=O)NCCNC(C)C` [Example 149, 6-chloro-8-[(2,6-difluorobenzyl)oxy]-N-[2-(isopropylamino)ethyl]-2-methylimidazo[1,2-a]-pyridine-3-carboxamide] was 1.00 µM.
`Cc1nc2c(OCc3c(F)cccc3F)cc(Cl)cn2c1C(=O)NCCN(CC(F)F)C1CC1` [Example 150, 6-chloro-N-{2-[cyclopropyl(2,2-difluoroethyl)-amino]ethyl}-8-[(2,6-difluorobenzyl)oxy]-2-methylimidazo[1,2-a]pyridine-3-carboxamide]: the MEC is 0.10 µM.
`Cc1nc2c(OCc3c(F)cccc3F)cc(Cl)cn2c1C(=O)NCCN1CCC(F)(F)CC1` [Example 151, 6-chloro-8-[(2,6-difluorobenzyl)oxy]-N-[2-(4,4-difluoropiperidin-1-yl)ethyl]-2-methylimidazo[1,2-a]pyridine-3-carboxamide]: the MEC worked out at 0.10 µM.
The result for `Cc1nc2c(OCc3c(F)cccc3F)cc(Cl)cn2c1C(=O)NCCN1CCN(C(C)C)CC1` [Example 152, 6-chloro-8-[(2,6-difluorobenzyl)oxy]-N-[2-(4-isopropylpiperazin-1-yl)ethyl]-2-methyl-imidazo[1,2-a]pyridine-3-carboxamide] reads 1.00 µM.
Regarding `COCCNCCNC(=O)c1c(C)nc2c(OCc3c(F)cccc3F)cc(Cl)cn12` [Example 153, 6-chloro-8-[(2,6-difluorobenzyl)oxy]-N-{2-[(2-methoxyethyl)amino]ethyl}-2-methylimidazo[1,2-a]pyridine-3-carboxamide], the MEC turned out to be 1.00 µM.
As for `Cc1nc2c(OCc3c(F)cccc3F)cc(Cl)cn2c1C(=O)NCCN1CCN(C)CC1` [Example 154, 6-chloro-8-[(2,6-difluorobenzyl)oxy]-2-methyl-N-[2-(4-methylpiperazin-1-yl)ethyl]imidazo[1,2-a]pyridine-3-carboxamide], the MEC is 1.00 µM.
The result for `Cc1nc2c(OCc3c(F)cccc3F)cc(Cl)cn2c1C(=O)NCC1(N)CCC1` [Example 155, N-[(1-aminocyclobutyl)methyl]-6-chloro-8-[(2,6-difluorobenzyl)oxy]-2-methylimidazo[1,2-a]-pyridine-3-carboxamide trifluoroacetate] reads 0.30 µM; that for `Cc1nc2c(OCc3c(F)cccc3F)cc(Cl)cn2c1C(=O)NCCN1CC(N2CCCC2)C1` [Example 156, 6-chloro-8-[(2,6-difluorobenzyl)oxy]-2-methyl-N-{2-[3-(pyrrolidin-1-yl)azetidin-1-yl]ethyl}-imidazo[1,2-a]pyridine-3-carboxamide], 3.00 µM; that for `Cc1nc2c(OCc3c(F)cccc3F)cc(Cl)cn2c1C(=O)NCCN1C[C@@H](C)O[C@@H](C)C1` [Example 158, 6-chloro-8-[(2,6-difluorobenzyl)oxy]-N-{2-[(2R,6S)-2,6-dimethylmorpholin-4-yl]ethyl}-2-methylimidazo[1,2-a]pyridine-3-carboxamide], 0.30 µM.
For the molecule `Cc1cc(OCc2c(F)cccc2F)c2nc(C)c(C(=O)NC3CCCC(N)C3)n2c1` (stereo not shown) [Example 160, N-(3-aminocyclohexyl)-8-[(2,6-difluorobenzyl)oxy]-2,6-dimethylimidazo[1,2-a]-pyridine-3-carboxamide], the MEC came to 1.00 µM.
